In US8952024B2, “Herbicidal pyrimidone derivatives” (E I du Pont de Nemours and Company, priority 2009, dated 2015):

Experiments:
Assay type in all cases: in vivo
[1] = tested on: winter barley (Hordeum vulgare); assay: Test B postemergence plant response; details: for Barley plant response rating (0 to 100 scale): 62 g ai/ha, postemergence, 0 is no effect, 100 is complete control, 13 to 15 days; for Plant response rating, Barley: Postemergence
Method in brief: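 Plants grown in peat/vermiculite medium were sprayed postemergence at 2–18 cm height (1- to 4-leaf stage). After 13–15 days in the greenhouse, response was rated visually against untreated controls on a 0–100 scale (0 no effect, 100 complete control).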

[2] = tested on: large crabgrass (Digitaria sanguinalis); assay: Test A pre-/postemergence plant response
Method in brief: (§1)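 Seeds planted in loam soil/sand blend; test chemicals in non-phytotoxic solvent mixture with surfactant applied as directed soil spray preemergence and, concurrently, postemergence to plants 2–10 cm tall at one- to two-leaf stage. Greenhouse ~10 days; visual injury vs untreated controls, 0 (no effect) to 100 (complete control).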

[3] = tested on: velvetleaf (Abutilon theophrasti); assay: Test A pre-/postemergence plant response
Method in brief: as §1

[4] = tested on: morningglory (Ipomoea spp.); assay: Test A pre-/postemergence plant response
Method in brief: as §1

[5] = tested on: giant foxtail (Setaria faberii); assay: Test A pre-/postemergence plant response
Method in brief: as §1

corn (Zea mays) = assay: Test A pre-/postemergence plant response
Method in brief: as §1

[6] = tested on: barnyardgrass (Echinochloa crus-galli); assay: Test A pre-/postemergence plant response
Method in brief: as §1

[7] = tested on: wheat (Triticum aestivum); assay: Test A pre-/postemergence plant response
Method in brief: as §1

[8] = tested on: pigweed (Amaranthus retroflexus); assay: Test A pre-/postemergence plant response
Method in brief: as §1

[9] = tested on: umbrella sedge (Cyperus difformis); assay: Test B flooded paddy test; details: for Plant response rating, Flood, Sedge, Umbrella: 250 g ai/ha, flooded paddy test, visual rating on 0 to 100 scale (0 no effect, 100 complete control) after 13 to 15 days; for Plant response rating, Sedge, Umbrella: Flood (flooded paddy test), 13 to 15 days
Method in brief: (§2)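 Greenhouse-held for 13 to 15 days, treated pots were compared visually with controls and scored 0–100 (0, no effect). Treatment had been made into paddy water kept at 3 cm above the soil, with plants at the 2-leaf stage.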

[10] = tested on: ducksalad (Heteranthera limosa); assay: Test B flooded paddy test; details: for Plant response rating, Flood, Ducksalad: 250 g ai/ha, flooded paddy test, visual rating on 0 to 100 scale (0 no effect, 100 complete control) after 13 to 15 days; for Plant response rating, Ducksalad: Flood (flooded paddy test), 13 to 15 days
Method in brief: as §2

[11] = tested on: barnyardgrass (Echinochloa crus-galli); assay: Test B flooded paddy test; details: for Plant response rating, Flood, Barnyardgrass: 250 g ai/ha, flooded paddy test, visual rating on 0 to 100 scale (0 no effect, 100 complete control) after 13 to 15 days; for Plant response rating, Barnyardgrass: Flood (flooded paddy test), 13 to 15 days
Method in brief: as §2

rice (Oryza sativa) = assay: Test B flooded paddy test; details: for Plant response rating, Flood, Rice: 250 g ai/ha, flooded paddy test, visual rating on 0 to 100 scale (0 no effect, 100 complete control) after 13 to 15 days; for Plant response rating, Rice: Flood (flooded paddy test), 13 to 15 days
Method in brief: as §2

[12] = 31 g ai/ha, 0 to 100 scale (0 no effect, 100 complete control)
[13] = 125 g ai/ha, scale 0 to 100 (0 no effect, 100 complete control)
[14] = Postemergence, 125 g ai/ha, 0 to 100 scale where 0 is no effect and 100 is complete control
[15] = Postemergence, 500 g ai/ha, 0 to 100 scale, 0 = no effect, 100 = complete control, approx. ten days
[16] = Preemergence, 125 g ai/ha, 0 to 100 scale, 0 = no effect, 100 = complete control
[17] = Preemergence, 500 g ai/ha, visual injury, 0 to 100 scale (0 no effect, 100 complete control), approx. ten days
[18] = 62 g ai/ha, scale of 0 to 100 where 0 is no effect and 100 is complete control
[19] = 125 g ai/ha, scale 0 to 100, 0 is no effect, 100 is complete control
[20] = Flood, 31 g ai/ha, scale 0 to 100 (0 no effect, 100 complete control)

COCCn1c(-c2cccc(F)c2)ncc(C(=O)C2=C(O)CCCC2=O)c1=O [Compound 123]
Barley plant response rating (0 to 100 scale) [1]: 10
Plant response rating, Barley [1, 12]: 5
Plant response rating, Barley [1, 13]: 25
Plant response rating, Barley ([1]; 250 g ai/ha, scale 0 to 100 (0 no effect, 100 complete control)): 50
Plant response rating, Crabgrass, Large [2, 14]: 80
Plant response rating, Crabgrass, Large [2, 15]: 90
Plant response rating, Crabgrass, Large [2, 16]: 100
Plant response rating, Crabgrass, Large [2, 17]: 100
Plant response rating, Velvetleaf [3, 14]: 100
Plant response rating, Velvetleaf [3, 15]: 100
Plant response rating, Velvetleaf [3, 16]: 70
Plant response rating, Velvetleaf [3, 17]: 100
Plant response rating, Morningglory [4, 14]: 100
Plant response rating, Morningglory [4, 15]: 100
Plant response rating, Morningglory [4, 16]: 70
Plant response rating, Foxtail, Giant [5, 14]: 70
Plant response rating, Foxtail, Giant [5, 15]: 80
Plant response rating, Foxtail, Giant [5, 16]: 50
Plant response rating, Foxtail, Giant [5, 17]: 100
Plant response rating, Corn (corn (Zea mays); [14]): 20
Plant response rating, Corn (corn (Zea mays); [15]): 70
Plant response rating, Corn (corn (Zea mays); [16]): 0
Plant response rating, Corn (corn (Zea mays); [17]): 30
Plant response rating, Barnyardgrass [6, 14]: 80
Plant response rating, Barnyardgrass [6, 15]: 90
Plant response rating, Barnyardgrass [6, 16]: 50
Plant response rating, Barnyardgrass [6, 17]: 100
Plant response rating, Wheat [7, 14]: 0
Plant response rating, Wheat [7, 15]: 20
Plant response rating, Wheat [7, 16]: 0
Plant response rating, Wheat [7, 17]: 20
Plant response rating, Pigweed [8, 14]: 100
Plant response rating, Pigweed [8, 15]: 100
Plant response rating, Pigweed [8, 16]: 90
Plant response rating, Pigweed [8, 17]: 100
Plant response rating, Flood, Sedge, Umbrella [9]: 85
Plant response rating, Sedge, Umbrella [9, 18]: 70
Plant response rating, Sedge, Umbrella [9, 19]: 75
Sedge, Umbrella plant response rating [9, 20]: 40
Plant response rating, Flood, Ducksalad [10]: 95
Plant response rating, Ducksalad [10, 18]: 80
Plant response rating, Ducksalad [10, 19]: 90
Ducksalad plant response rating [10, 20]: 30
Plant response rating, Flood, Barnyardgrass [11]: 70
Plant response rating, Barnyardgrass [11, 18]: 40
Plant response rating, Barnyardgrass [11, 19]: 55
Barnyardgrass plant response rating [11, 20]: 30
Plant response rating, Flood, Rice (rice (Oryza sativa)): 40
Plant response rating, Rice (rice (Oryza sativa); [18]): 20
Plant response rating, Rice (rice (Oryza sativa); [19]): 30
Rice plant response rating (rice (Oryza sativa); [20]): 0

O=C1CCCC(O)=C1C(=O)c1cnc(-c2ccccc2)n(C2CCCC2)c1=O [Compound 131]
Plant response rating, Barley ([1]; 16 g ai/ha, 0 to 100 scale): 0
Barley plant response rating (0 to 100 scale) [1]: 0
Plant response rating, Barley [1, 12]: 0
Plant response rating, Barley [1, 13]: 0
Plant response rating, Crabgrass, Large [2, 14]: 90
Plant response rating, Crabgrass, Large [2, 15]: 90
Plant response rating, Crabgrass, Large [2, 16]: 80
Plant response rating, Crabgrass, Large [2, 17]: 100
Plant response rating, Velvetleaf [3, 14]: 100
Plant response rating, Velvetleaf [3, 15]: 100
Plant response rating, Velvetleaf [3, 16]: 80
Plant response rating, Velvetleaf [3, 17]: 100
Plant response rating, Morningglory [4, 14]: 100
Plant response rating, Morningglory [4, 15]: 100
Plant response rating, Morningglory [4, 17]: 80
Plant response rating, Foxtail, Giant [5, 14]: 80
Plant response rating, Foxtail, Giant [5, 15]: 90
Plant response rating, Foxtail, Giant [5, 16]: 60
Plant response rating, Foxtail, Giant [5, 17]: 80
Plant response rating, Corn (corn (Zea mays); [14]): 0
Plant response rating, Corn (corn (Zea mays); [15]): 30
Plant response rating, Corn (corn (Zea mays); [16]): 0
Plant response rating, Corn (corn (Zea mays); [17]): 0
Plant response rating, Barnyardgrass [6, 14]: 90
Plant response rating, Barnyardgrass [6, 15]: 90
Plant response rating, Barnyardgrass [6, 16]: 50
Plant response rating, Barnyardgrass [6, 17]: 100
Plant response rating, Wheat [7, 14]: 0
Plant response rating, Wheat [7, 15]: 0
Plant response rating, Wheat [7, 16]: 0
Plant response rating, Wheat [7, 17]: 0
Plant response rating, Pigweed [8, 14]: 100
Plant response rating, Pigweed [8, 15]: 100
Plant response rating, Pigweed [8, 16]: 100
Plant response rating, Pigweed [8, 17]: 100
Plant response rating, Flood, Sedge, Umbrella [9]: 85
Plant response rating, Sedge, Umbrella [9, 18]: 20
Plant response rating, Flood, Ducksalad [10]: 85
Plant response rating, Ducksalad [10, 18]: 40
Plant response rating, Flood, Barnyardgrass [11]: 50
Plant response rating, Barnyardgrass [11, 18]: 20
Plant response rating, Flood, Rice (rice (Oryza sativa)): 55
Plant response rating, Rice (rice (Oryza sativa); [18]): 25
